This note sets out measurements from patent US11319315B2, “Cyclohexyl acid triazole azoles as LPA antagonists” (BRISTOL-MYERS SQUIBB COMPANY, priority 2017, dated 2022).

The target of this experiment is T1, human LPA1 (Homo sapiens, UniProt Q92633).
T1 construct: expressed in transfected cells; host or cells: Chinese hamster ovary (CHO) cells
As to the kind of experiment: LPA1 functional antagonist assay (LPA-induced calcium flux in CHO cells overexpressing human LPA1). To be noted: inhibition of calcium flux induced by 10 nM LPA, CHO cells overexpressing human LPA1; read-out: hLPA1 IC50. In kind it is cell-based. The procedure, abridged:
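CHO cells overexpressing human LPA1, dye-loaded 30 min at 37 °C, then given compound (0.08 nM–5 μM final, 0.5% DMSO) in HBSS/20 mM HEPES/0.1% fatty-acid-free BSA for 20 min at room temperature before 10 nM LPA. IC50 as 50% inhibition of LPA-evoked calcium flux, 4-parameter logistic fit.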
A general note: Calcium assays in cells follow changes in intracellular calcium, usually with a dye or a luminescent sensor.

pIC50: −log10 of the molar value. Counter-ions that a name gives are not always drawn.

T1 sequence (Q92633 whole entry): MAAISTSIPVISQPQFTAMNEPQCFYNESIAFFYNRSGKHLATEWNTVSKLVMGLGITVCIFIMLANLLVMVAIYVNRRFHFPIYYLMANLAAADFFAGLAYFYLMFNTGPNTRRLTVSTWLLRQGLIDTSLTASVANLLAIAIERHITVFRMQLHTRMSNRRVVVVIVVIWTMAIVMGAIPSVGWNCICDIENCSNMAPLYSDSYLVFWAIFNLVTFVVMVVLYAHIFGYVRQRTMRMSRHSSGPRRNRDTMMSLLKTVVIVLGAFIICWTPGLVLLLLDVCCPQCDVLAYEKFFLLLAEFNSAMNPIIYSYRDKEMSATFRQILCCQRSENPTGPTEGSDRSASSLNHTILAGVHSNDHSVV

The term pIC50 denotes the negative decadic logarithm of the IC50, by convention in mol/L. For `Cc1nc(-c2nnn(C)c2CNc2noc(CCC(C)C)n2)c(F)cc1O[C@H]1CCC[C@H](C(=O)O)C1` [Example 281, (1S,3S)-3-((5-fluoro-6-(5-(((5-isopentyl-1,2,4-oxadiazol-3-yl)amino)methyl)-1-methyl-1H-1,2,3-triazol-4-yl)-2-methylpyridin-3-yl)oxy)cyclohexane-1-carboxylic acid], the negative logarithm of the IC50 (pIC50) is 7.17. For the compound `Cc1nc(-c2nnn(C)c2CNc2noc(CC3CC3)n2)c(F)cc1O[C@H]1CCC[C@H](C(=O)O)C1` [Example 282, (1S,3S)-3-((6-(5-(((5-(cyclopropylmethyl)-1,2,4-oxadiazol-3-yl)amino)methyl)-1-methyl-1H-1,2,3-triazol-4-yl)-5-fluoro-2-methylpyridin-3-yl)oxy)cyclohexane-1-carboxylic acid], the pIC50 was 6.63. The same measure for `Cc1nc(-c2nnn(C)c2CNc2noc(COC3CCC3)n2)ccc1O[C@H]1CCC[C@H](C(=O)O)C1` [Example 283, (1S,3S)-3-((6-(5-(((5-(cyclobutoxymethyl)-1,2,4-oxadiazol-3-yl)amino)methyl)-1-methyl-1H-1,2,3-triazol-4-yl)-2-methylpyridin-3-yl)oxy)cyclo-hexane-1-carboxylic acid, TFA salt]: 7.72; for `CCCOCc1nc(NCc2c(-c3ccc(O[C@H]4CCC[C@H](C(=O)O)C4)c(C)n3)nnn2C)no1` [Example 284, (1S,3S)-3-((2-methyl-6-(1-methyl-5-(((5-(propoxymethyl)-1,2,4-oxadi-azol-3-yl)amino)methyl)-1H-1,2,3-triazol-4-yl)pyridin-3-yl)oxy)cyclo-hexane-1-carboxylic acid, TFA salt]: 7.62. As for `CC(C)CCc1nc(NCc2c(-c3ccc(O[C@H]4CCC[C@H](C(=O)O)C4)cn3)nnn2C)no1` [Example 285, (1 S,3 S)-3-((6-(5-(((5-isopentyl-1,2,4-oxadiazol-3-yl)amino)methyl)-1-methyl-1H-1,2,3-triazol-4-yl)pyridin-3-yl)oxy)cyclohexane-1-carboxylic acid], the pIC50 is 7.03.

As for `Cn1nnc(-c2ccc(O[C@H]3CCC[C@H](C(=O)O)C3)cn2)c1CNc1noc(CCC2CC2)n1` [Example 286, (1S,3S)-3-((6-(5-(((5-(2-cyclopropyl-ethyl)-1,2,4-oxadiazol-3-yl)amino)methyl)-1-methyl-1H-1,2,3-triazol-4-yl)pyridin-3-yl)oxy)cyclohexane-1-carboxylic acid], the pIC50 is 8.00.

In the case of `CCCCc1nc(NCc2c(-c3ccc(O[C@H]4CCC[C@H](C(=O)O)C4)cn3)nnn2C)no1` [Example 287, (1S,3S)-3-((6-(5-(((5-butyl-1,2,4-oxadiazol-3-yl)amino)methyl)-1-methyl-1H-1,2,3-triazol-4-yl)pyridin-3-yl)oxy)cyclohexane-1-carboxylic acid], the negative-log IC50 (pIC50) was 6.91. Turning to `Cn1nnc(-c2ccc(O[C@H]3CCC[C@H](C(=O)O)C3)cn2)c1CNc1noc(CC2CCC2)n1` [Example 288, (1S,3S)-3-((6-(5-(((5-(cyclobutylmethyl)-1,2,4-oxadiazol-3-yl)amino)methyl)-1-methyl-1H-1,2,3-triazol-4-yl)pyridin-3-yl)oxy)cyclohexane-1-carboxylic acid], the pIC50 is 7.47. Regarding `Cn1nnc(-c2ccc(O[C@H]3CCC[C@H](C(=O)O)C3)cn2)c1CNc1noc(C2CCCC2)n1` [Example 289, (1S,3S)-3-((6-(5-(((5-cyclopentyl-1,2,4-oxadiazol-3-yl)amino)methyl)-1-methyl-1H-1,2,3-triazol-4-yl)pyridin-3-yl)oxy)cyclohexane-1-carboxylic acid], the pIC50 is 7.29. In the case of `Cn1nnc(-c2ccc(O[C@H]3CCC[C@H](C(=O)O)C3)cn2)c1CNc1noc(CCCC(F)(F)F)n1` [Example 292, (1S,3S)-3-((6-(1-methyl-5-(((5-(4,4,4-trifluorobutyl)-1,2,4-oxadi-azol-3-yl)amino)methyl)-1H-1,2,3-triazol-4-yl)pyridin-3-yl)oxy)cyclohexane-1-carboxylic acid], the pIC50 is 7.31. For `CC(C)c1nc(NCc2c(-c3ccc(O[C@H]4CCC[C@H](C(=O)O)C4)cn3)nnn2C)no1` [Example 293, (1S,3S)-3-((6-(5-(((5-isopropyl-1,2,4-oxadiazol-3-yl)amino)methyl)-1-methyl-1H-1,2,3-triazol-4-yl)pyridin-3-yl)oxy)cyclohexane-1-carboxylic acid], the pIC50 is 6.21. Take `Cn1nnc(-c2ccc(O[C@H]3CCC[C@H](C(=O)O)C3)cn2)c1CNc1noc(CCC2CCC2)n1` [Example 294, (1S,3S)-3-((6-(5-(((5-(2-cyclobutyl-ethyl)-1,2,4-oxadiazol-3-yl)amino)methyl)-1-methyl-1H-1,2,3-triazol-4-yl)pyridin-3-yl)oxy)cyclohexane-1-carboxylic acid]: the pIC50 is 7.48. Turning to `Cc1nc(-c2nnn(C)c2Cn2nnc(CC3CCC3)n2)ccc1O[C@H]1CCC[C@H](C(=O)O)C1` [Example 295, (1S,3S)-3-{[6-(5-{[5-(cyclobutyl-methyl)-2H-1,2,3,4-tetrazol-2-yl]methyl}-1-methyl-1H-1,2,3-triazol-4-yl)-2-methylpyridin-3-yl]oxy}cyclohexane-1-carboxylic acid], the pIC50 was 6.99.

As to `Cc1nc(-c2nnn(C)c2Cn2nnc(CCC3CC3)n2)ccc1O[C@H]1CCC[C@H](C(=O)O)C1` [Example 296, (1S,3S)-3-{[6-(5-{[5-(2-cyclopropyl-ethyl)-2H-1,2,3,4-tetrazol-2-yl]methyl}-1-methyl-1H-1,2,3-triazol-4-yl)-2-methylpyridin-3-yl]oxy}cyclohexane-1-carboxylic acid], the pIC50 is 7.02.

On to `Cc1nc(-c2nnn(C)c2Cn2nnc([C@H]3CCCO3)n2)ccc1O[C@H]1CCC[C@H](C(=O)O)C1` [Example 297, (1S,3S)-3-({2-methyl-6-[1-methyl-5-({5-[(2R)-oxolan-2-yl]-2H-1,2,3,4-tetrazol-2-yl}methyl)-1H-1,2,3-triazol-4-yl]pyridin-3-yl}oxy)cyclohexane-1-carboxylic acid], for which the pIC50 was 7.04. For the compound `Cc1nc(-c2nnn(C)c2Cn2nnnc2C(C)C)ccc1O[C@H]1CCC[C@H](C(=O)O)C1` [Example 298, (1S,3S)-3-{[2-methyl-6-(1-methyl-5-{[5-(propan-2-yl)-1H-1,2,3,4-tetrazol-1-yl]methyl}-1H-1,2,3-triazol-4-yl)pyridin-3-yl]oxy}cyclohexane-1-carboxylic acid], the pIC50 is 7.02. Turning to `Cc1nc(-c2nnn(C)c2Cn2nnc(C(C)C)n2)ccc1O[C@H]1CCC[C@H](C(=O)O)C1` [Example 299, (1S,3S)-3-{[2-methyl-6-(1-methyl-5-{[5-(propan-2-yl)-2H-1,2,3,4-tetrazol-2-yl]methyl}-1H-1,2,3-triazol-4-yl)pyridin-3-yl]oxy}cyclo-hexane-1-carboxylic acid], the pIC50 was 7.00. As for `Cc1nc(-c2nnn(C)c2Cn2nnc(COc3ccccc3)n2)ccc1O[C@H]1CCC[C@H](C(=O)O)C1` [Example 300, (1S,3S)-3-{[2-methyl-6-(1-methyl-5-{[5-(phenoxymethyl)-2H-1,2,3,4-tetrazol-2-yl]methyl}-1H-1,2,3-triazol-4-yl)pyridin-3-yl]oxy}cyclohexane-1-carboxylic acid], the pIC50 is 7.01. The same measure for `Cc1cc(C)n(Cc2nnn(Cc3c(-c4ccc(O[C@H]5CCC[C@H](C(=O)O)C5)c(C)n4)nnn3C)n2)n1` [Example 301, (1S,3S)-3-({6-[5-({5-[(3,5-dimethyl-1H-pyrazol-1-yl)methyl]-2H-1,2,3,4-tetrazol-2-yl}methyl)-1-methyl-1H-1,2,3-triazol-4-yl]-2-methylpyridin-3-yl}oxy)cyclohexane-1-carboxylic acid]: 6.02. In the case of `CCCOCc1nnn(Cc2c(-c3ccc(O[C@H]4CCC[C@H](C(=O)O)C4)c(C)n3)nnn2C)n1` [Example 302, (1S,3S)-3-{[2-methyl-6-(1-methyl-5-{[5-(propoxymethyl)-2H-1,2,3,4-tetrazol-2-yl]methyl}-1H-1,2,3-triazol-4-yl)pyridin-3-yl]oxy}cyclohexane-1-carboxylic acid], the pIC50 is 7.20. On to `Cc1ccn(Cc2nnnn2Cc2c(-c3ccc(O[C@H]4CCC[C@H](C(=O)O)C4)c(C)n3)nnn2C)n1` [Example 303, (1S,3S)-3-({2-methyl-6-[1-methyl-5-({5-[(3-methyl-1H-pyrazol-1-yl)methyl]-1H-1,2,3,4-tetrazol-1-yl}methyl)-1H-1,2,3-triazol-4-yl]pyridin-3-yl}oxy)cyclohexane-1-carboxylic acid], for which the pIC50 is 6.02. For `Cc1nc(-c2nnn(C)c2Cn2nnnc2COc2ccccc2)ccc1O[C@H]1CCC[C@H](C(=O)O)C1` [Example 304, (1S,3S)-3-{[2-methyl-6-(1-methyl-5-{[5-(phenoxymethyl)-1H-1,2,3,4-tetrazol-1-yl]methyl}-1H-1,2,3-triazol-4-yl)pyridin-3-yl]oxy}cyclohexane-1-carboxylic acid], the negative-log IC50 (pIC50) is 6.91. For `CCCOCc1nnnn1Cc1c(-c2ccc(O[C@H]3CCC[C@H](C(=O)O)C3)c(C)n2)nnn1C` [Example 305, (1S,3S)-3-{[2-methyl-6-(1-methyl-5-{[5-(propoxymethyl)-1H-1,2,3,4-tetrazol-1-yl]methyl}-1H-1,2,3-triazol-4-yl)pyridin-3-yl]oxy}cyclohexane-1-carboxylic acid], the pIC50 is 6.61.

With `CCc1nc(-c2nnn(C)c2Cn2nnnc2CC2CC2)ccc1O[C@H]1CCC[C@H](C(=O)O)C1` [Example 306, (1S,3S)-3-{[6-(5-{[5-(cyclopropyl-methyl)-1H-1,2,3,4-tetrazol-1-yl]methyl}-1-methyl-1H-1,2,3-triazol-4-yl)-2-ethylpyridin-3-yl]oxy}cyclohexane-1-carboxylic acid], the pIC50 is 6.69. Then `CCc1nc(-c2nnn(C)c2Cn2nnc(CC3CC3)n2)ccc1O[C@H]1CCC[C@H](C(=O)O)C1` [Example 307, (1S,3S)-3-{[6-(5-{[5-(cyclopropyl-methyl)-2H-1,2,3,4-tetrazol-2-yl]methyl}-1-methyl-1H-1,2,3-triazol-4-yl)-2-ethylpyridin-3-yl]oxy}cyclohexane-1-carboxylic acid], with 7.49.
